According to ChEMBL document CHEMBL5154747, “Discovery of new carbonic anhydrase IX inhibitors as anticancer agents by toning the hydrophobic and hydrophilic rims of the active site to encounter the dual-tail approach” (Eur J Med Chem, 2022):

Target: Carbonic anhydrase 9 (Homo sapiens, UniProt Q16790)
Experiment: Inhibition of recombinant human CA 9 preincubated for 15 mins by phenol red dye based stopped flow CO2 hydration assay
Conditions: not given

Compound	Ki [nM]
NS(=O)(=O)c1ccc(Nc2nc(N/N=C/CCc3ccccc3)nc(Nc3ccccc3)n2)cc1	28.8

System: CCRF-CEM
Experiment: Anticancer activity against human CCRF-CEM cells assessed as cell growth inhibition at 10 uM incubated for 48 hrs by SRB assay relative to control
Assay type: functional
Conditions: read-out: GI

Compound	inhibition of growth at 10 µM [%]
NS(=O)(=O)c1ccc(Nc2nc(N/N=C/CCc3ccccc3)nc(Nc3ccccc3)n2)cc1	< 10

System: HL-60(TB)
Experiment: Anticancer activity against human HL-60(TB) cells assessed as cell growth inhibition at 10 uM incubated for 48 hrs by SRB assay relative to control
Assay type: functional
Conditions: read-out: GI

Compound	inhibition of growth at 10 µM [%]
NS(=O)(=O)c1ccc(Nc2nc(N/N=C/CCc3ccccc3)nc(Nc3ccccc3)n2)cc1	< 10

System: K562
Experiment: Anticancer activity against human K562 cells assessed as cell growth inhibition at 10 uM incubated for 48 hrs by SRB assay relative to control
Assay type: functional
Conditions: read-out: GI

Compound	inhibition of growth at 10 µM [%]
NS(=O)(=O)c1ccc(Nc2nc(N/N=C/CCc3ccccc3)nc(Nc3ccccc3)n2)cc1	< 10

System: RPMI-8226
Experiment: Anticancer activity against human RPMI-8226 cells assessed as cell growth inhibition at 10 uM incubated for 48 hrs by SRB assay relative to control
Assay type: functional
Conditions: read-out: GI

Compound	inhibition of growth at 10 µM [%]
NS(=O)(=O)c1ccc(Nc2nc(N/N=C/CCc3ccccc3)nc(Nc3ccccc3)n2)cc1	< 10

System: SR
Experiment: Anticancer activity against human SR cells assessed as cell growth inhibition at 10 uM incubated for 48 hrs by SRB assay relative to control
Assay type: functional
Conditions: read-out: GI

Compound	inhibition of growth at 10 µM [%]
NS(=O)(=O)c1ccc(Nc2nc(N/N=C/CCc3ccccc3)nc(Nc3ccccc3)n2)cc1	< 10

System: EKVX
Experiment: Anticancer activity against human EKVX cells assessed as cell growth inhibition at 10 uM incubated for 48 hrs by SRB assay relative to control
Assay type: functional
Conditions: read-out: GI

Compound	inhibition of growth at 10 µM [%]
NS(=O)(=O)c1ccc(Nc2nc(N/N=C/CCc3ccccc3)nc(Nc3ccccc3)n2)cc1	< 10

System: HOP-92
Experiment: Anticancer activity against human HOP-92 cells assessed as cell growth inhibition at 10 uM incubated for 48 hrs by SRB assay relative to control
Assay type: functional
Conditions: read-out: GI

Compound	inhibition of growth at 10 µM [%]
NS(=O)(=O)c1ccc(Nc2nc(N/N=C/CCc3ccccc3)nc(Nc3ccccc3)n2)cc1	< 10

System: NCI-H23
Experiment: Anticancer activity against human NCI-H23 cells assessed as cell growth inhibition at 10 uM incubated for 48 hrs by SRB assay relative to control
Assay type: functional
Conditions: read-out: GI

Compound	inhibition of growth at 10 µM [%]
NS(=O)(=O)c1ccc(Nc2nc(N/N=C/CCc3ccccc3)nc(Nc3ccccc3)n2)cc1	< 10

System: NCI-H460
Experiment: Anticancer activity against human NCI-H460 cells assessed as cell growth inhibition at 10 uM incubated for 48 hrs by SRB assay relative to control
Assay type: functional
Conditions: read-out: GI

Compound	inhibition of growth at 10 µM [%]
NS(=O)(=O)c1ccc(Nc2nc(N/N=C/CCc3ccccc3)nc(Nc3ccccc3)n2)cc1	< 10

System: NCI-H522
Experiment: Anticancer activity against human NCI-H522 cells assessed as cell growth inhibition at 10 uM incubated for 48 hrs by SRB assay relative to control
Assay type: functional
Conditions: read-out: GI

Compound	inhibition of growth at 10 µM [%]
NS(=O)(=O)c1ccc(Nc2nc(N/N=C/CCc3ccccc3)nc(Nc3ccccc3)n2)cc1	12

System: COLO 205
Experiment: Anticancer activity against human COLO 205 cells assessed as cell growth inhibition at 10 uM incubated for 48 hrs by SRB assay relative to control
Assay type: functional
Conditions: read-out: GI

Compound	inhibition of growth at 10 µM [%]
NS(=O)(=O)c1ccc(Nc2nc(N/N=C/CCc3ccccc3)nc(Nc3ccccc3)n2)cc1	< 10

System: HCC 2998
Experiment: Anticancer activity against human HCC 2998 cells assessed as cell growth inhibition at 10 uM incubated for 48 hrs by SRB assay relative to control
Assay type: functional
Conditions: read-out: GI

Compound	inhibition of growth at 10 µM [%]
NS(=O)(=O)c1ccc(Nc2nc(N/N=C/CCc3ccccc3)nc(Nc3ccccc3)n2)cc1	< 10

System: HCT-116
Experiment: Anticancer activity against human HCT-116 cells assessed as cell growth inhibition at 10 uM incubated for 48 hrs by SRB assay relative to control
Assay type: functional
Conditions: read-out: GI

Compound	inhibition of growth at 10 µM [%]
NS(=O)(=O)c1ccc(Nc2nc(N/N=C/CCc3ccccc3)nc(Nc3ccccc3)n2)cc1	< 10

System: HCT-15
Experiment: Anticancer activity against human HCT-15 cells assessed as cell growth inhibition at 10 uM incubated for 48 hrs by SRB assay relative to control
Assay type: functional
Conditions: read-out: GI

Compound	inhibition of growth at 10 µM [%]
NS(=O)(=O)c1ccc(Nc2nc(N/N=C/CCc3ccccc3)nc(Nc3ccccc3)n2)cc1	< 10

System: HT-29
Experiment: Anticancer activity against human HT-29 cells assessed as cell growth inhibition at 10 uM incubated for 48 hrs by SRB assay relative to control
Assay type: functional
Conditions: read-out: GI

Compound	inhibition of growth at 10 µM [%]
NS(=O)(=O)c1ccc(Nc2nc(N/N=C/CCc3ccccc3)nc(Nc3ccccc3)n2)cc1	< 10

System: SW-620
Experiment: Anticancer activity against human SW-620 cells assessed as cell growth inhibition at 10 uM incubated for 48 hrs by SRB assay relative to control
Assay type: functional
Conditions: read-out: GI

Compound	inhibition of growth at 10 µM [%]
NS(=O)(=O)c1ccc(Nc2nc(N/N=C/CCc3ccccc3)nc(Nc3ccccc3)n2)cc1	< 10

System: SF-539
Experiment: Anticancer activity against human SF-539 cells assessed as cell growth inhibition at 10 uM incubated for 48 hrs by SRB assay relative to control
Assay type: functional
Conditions: read-out: GI

Compound	inhibition of growth at 10 µM [%]
NS(=O)(=O)c1ccc(Nc2nc(N/N=C/CCc3ccccc3)nc(Nc3ccccc3)n2)cc1	< 10

System: SNB-19
Experiment: Anticancer activity against human SNB-19 cells assessed as cell growth inhibition at 10 uM incubated for 48 hrs by SRB assay relative to control
Assay type: functional
Conditions: read-out: GI

Compound	inhibition of growth at 10 µM [%]
NS(=O)(=O)c1ccc(Nc2nc(N/N=C/CCc3ccccc3)nc(Nc3ccccc3)n2)cc1	< 10

System: SNB-75
Experiment: Anticancer activity against human SNB-75 cells assessed as cell growth inhibition at 10 uM incubated for 48 hrs by SRB assay relative to control
Assay type: functional
Conditions: read-out: GI

Compound	inhibition of growth at 10 µM [%]
NS(=O)(=O)c1ccc(Nc2nc(N/N=C/CCc3ccccc3)nc(Nc3ccccc3)n2)cc1	< 10

System: U-251
Experiment: Anticancer activity against human U-251 cells assessed as cell growth inhibition at 10 uM incubated for 48 hrs by SRB assay relative to control
Assay type: functional
Conditions: read-out: GI

Compound	inhibition of growth at 10 µM [%]
NS(=O)(=O)c1ccc(Nc2nc(N/N=C/CCc3ccccc3)nc(Nc3ccccc3)n2)cc1	< 10

System: LOX IMVI
Experiment: Anticancer activity against human LOX IMVI cells assessed as cell growth inhibition at 10 uM incubated for 48 hrs by SRB assay relative to control
Assay type: functional
Conditions: read-out: GI

Compound	inhibition of growth at 10 µM [%]
NS(=O)(=O)c1ccc(Nc2nc(N/N=C/CCc3ccccc3)nc(Nc3ccccc3)n2)cc1	< 10

System: Malme-3M
Experiment: Anticancer activity against human Malme-3M cells assessed as cell growth inhibition at 10 uM incubated for 48 hrs by SRB assay relative to control
Assay type: functional
Conditions: read-out: GI

Compound	inhibition of growth at 10 µM [%]
NS(=O)(=O)c1ccc(Nc2nc(N/N=C/CCc3ccccc3)nc(Nc3ccccc3)n2)cc1	< 10

System: SK-MEL-28
Experiment: Anticancer activity against human SK-MEL-28 cells assessed as cell growth inhibition at 10 uM incubated for 48 hrs by SRB assay relative to control
Assay type: functional
Conditions: read-out: GI

Compound	inhibition of growth at 10 µM [%]
NS(=O)(=O)c1ccc(Nc2nc(N/N=C/CCc3ccccc3)nc(Nc3ccccc3)n2)cc1	< 10

System: SK-MEL-5
Experiment: Anticancer activity against human SK-MEL-5 cells assessed as cell growth inhibition at 10 uM incubated for 48 hrs by SRB assay relative to control
Assay type: functional
Conditions: read-out: GI

Compound	inhibition of growth at 10 µM [%]
NS(=O)(=O)c1ccc(Nc2nc(N/N=C/CCc3ccccc3)nc(Nc3ccccc3)n2)cc1	< 10

System: UACC-62
Experiment: Anticancer activity against human UACC-62 cells assessed as cell growth inhibition at 10 uM incubated for 48 hrs by SRB assay relative to control
Assay type: functional
Conditions: read-out: GI

Compound	inhibition of growth at 10 µM [%]
NS(=O)(=O)c1ccc(Nc2nc(N/N=C/CCc3ccccc3)nc(Nc3ccccc3)n2)cc1	< 10

System: IGROV-1
Experiment: Anticancer activity against human IGROV-1 cells assessed as cell growth inhibition at 10 uM incubated for 48 hrs by SRB assay relative to control
Assay type: functional
Conditions: read-out: GI

Compound	inhibition of growth at 10 µM [%]
NS(=O)(=O)c1ccc(Nc2nc(N/N=C/CCc3ccccc3)nc(Nc3ccccc3)n2)cc1	< 10

System: OVCAR-3
Experiment: Anticancer activity against human OVCAR-3 cells assessed as cell growth inhibition at 10 uM incubated for 48 hrs by SRB assay relative to control
Assay type: functional
Conditions: read-out: GI

Compound	inhibition of growth at 10 µM [%]
NS(=O)(=O)c1ccc(Nc2nc(N/N=C/CCc3ccccc3)nc(Nc3ccccc3)n2)cc1	< 10

System: OVCAR-5
Experiment: Anticancer activity against human OVCAR-5 cells assessed as cell growth inhibition at 10 uM incubated for 48 hrs by SRB assay relative to control
Assay type: functional
Conditions: read-out: GI

Compound	inhibition of growth at 10 µM [%]
NS(=O)(=O)c1ccc(Nc2nc(N/N=C/CCc3ccccc3)nc(Nc3ccccc3)n2)cc1	< 10

System: OVCAR-8
Experiment: Anticancer activity against human OVCAR-8 cells assessed as cell growth inhibition at 10 uM incubated for 48 hrs by SRB assay relative to control
Assay type: functional
Conditions: read-out: GI

Compound	inhibition of growth at 10 µM [%]
NS(=O)(=O)c1ccc(Nc2nc(N/N=C/CCc3ccccc3)nc(Nc3ccccc3)n2)cc1	< 10

System: SK-OV-3
Experiment: Anticancer activity against human SK-OV-3 cells assessed as cell growth inhibition at 10 uM incubated for 48 hrs by SRB assay relative to control
Assay type: functional
Conditions: read-out: GI

Compound	inhibition of growth at 10 µM [%]
NS(=O)(=O)c1ccc(Nc2nc(N/N=C/CCc3ccccc3)nc(Nc3ccccc3)n2)cc1	< 10

System: 786-0
Experiment: Anticancer activity against human 786-0 cells assessed as cell growth inhibition at 10 uM incubated for 48 hrs by SRB assay relative to control
Assay type: functional
Conditions: read-out: GI

Compound	inhibition of growth at 10 µM [%]
NS(=O)(=O)c1ccc(Nc2nc(N/N=C/CCc3ccccc3)nc(Nc3ccccc3)n2)cc1	< 10

System: ACHN
Experiment: Anticancer activity against human ACHN cells assessed as cell growth inhibition at 10 uM incubated for 48 hrs by SRB assay relative to control
Assay type: functional
Conditions: read-out: GI

Compound	inhibition of growth at 10 µM [%]
NS(=O)(=O)c1ccc(Nc2nc(N/N=C/CCc3ccccc3)nc(Nc3ccccc3)n2)cc1	< 10

System: CAKI-1
Experiment: Anticancer activity against human CAKI-1 cells assessed as cell growth inhibition at 10 uM incubated for 48 hrs by SRB assay relative to control
Assay type: functional
Conditions: read-out: GI

Compound	inhibition of growth at 10 µM [%]
NS(=O)(=O)c1ccc(Nc2nc(N/N=C/CCc3ccccc3)nc(Nc3ccccc3)n2)cc1	< 10

System: RXF 393
Experiment: Anticancer activity against human RXF 393 cells assessed as cell growth inhibition at 10 uM incubated for 48 hrs by SRB assay relative to control
Assay type: functional
Conditions: read-out: GI

Compound	inhibition of growth at 10 µM [%]
NS(=O)(=O)c1ccc(Nc2nc(N/N=C/CCc3ccccc3)nc(Nc3ccccc3)n2)cc1	< 10

System: SN12C
Experiment: Anticancer activity against human SN12C cells assessed as cell growth inhibition at 10 uM incubated for 48 hrs by SRB assay relative to control
Assay type: functional
Conditions: read-out: GI

Compound	inhibition of growth at 10 µM [%]
NS(=O)(=O)c1ccc(Nc2nc(N/N=C/CCc3ccccc3)nc(Nc3ccccc3)n2)cc1	< 10

System: UO-31
Experiment: Anticancer activity against human UO-31 cells assessed as cell growth inhibition at 10 uM incubated for 48 hrs by SRB assay relative to control
Assay type: functional
Conditions: read-out: GI

Compound	inhibition of growth at 10 µM [%]
NS(=O)(=O)c1ccc(Nc2nc(N/N=C/CCc3ccccc3)nc(Nc3ccccc3)n2)cc1	< 10

System: Hs-578T
Experiment: Anticancer activity against human Hs-578T cells assessed as cell growth inhibition at 10 uM incubated for 48 hrs by SRB assay relative to control
Assay type: functional
Conditions: read-out: GI

Compound	inhibition of growth at 10 µM [%]
NS(=O)(=O)c1ccc(Nc2nc(N/N=C/CCc3ccccc3)nc(Nc3ccccc3)n2)cc1	< 10

System: T47D
Experiment: Anticancer activity against human T47D cells assessed as cell growth inhibition at 10 uM incubated for 48 hrs by SRB assay relative to control
Assay type: functional
Conditions: read-out: GI

Compound	inhibition of growth at 10 µM [%]
NS(=O)(=O)c1ccc(Nc2nc(N/N=C/CCc3ccccc3)nc(Nc3ccccc3)n2)cc1	< 10

System: MDA-MB-468
Experiment: Anticancer activity against human MDA-MB-468 cells assessed as cell growth inhibition at 10 uM incubated for 48 hrs by SRB assay relative to control
Assay type: functional
Conditions: read-out: GI

Compound	inhibition of growth at 10 µM [%]
NS(=O)(=O)c1ccc(Nc2nc(N/N=C/CCc3ccccc3)nc(Nc3ccccc3)n2)cc1	11
